# Data: ChEMBL document CHEMBL4828763, “Discovery of Potent and Selective CDK9 Degraders for Targeting Transcription Regulation in Triple-Negative Breast Cancer” (J Med Chem, 2021)
# System: MDA-MB-468
# Assay: Growth inhibition of human MDA-MB-468 cells assessed as cell viability measured after 4 days by WST8 assay
# Type: functional, cell-based
# Conditions: MDA-MB-468, 96 h
row,SMILES,IC50
1,CC(C)c1cnn2c(NCc3ccc(NC(=O)CCCCCN4CCN(CCCCCc5cccc6c5CN(C5CCC(=O)NC5=O)C6=O)CC4)cc3)nc(OC3CCN(C)CC3)nc12 (stereo unspecified),0.222 µM
2,CC(C)c1cnn2c(NCc3ccc(CCCCCCNC(=O)COc4cccc5c4C(=O)N(C4CCC(=O)NC4=O)C5=O)cc3N(C)C)nc(OC3CCN(C)CC3)nc12 (stereo unspecified),5.24 µM
3,CC(C)c1cnn2c(NCc3ccccc3-n3ccnc3)nc(OC3CCN(CCOCCNC(=O)COc4cccc5c4C(=O)N(C4CCC(=O)NC4=O)C5=O)CC3)nc12 (stereo unspecified),15.8 µM
4,CC(C)c1cnn2c(NCc3ccccc3N(C)C)nc(OC3CCN(CCOCCOCCOCCNC(=O)COc4cccc5c4C(=O)N(C4CCC(=O)NC4=O)C5=O)CC3)nc12 (stereo unspecified),> 20 µM
5,CC(C)c1cnn2c(NCc3ccccc3)cc(NCCCCCCNCCOCCNC(=O)COc3cccc4c3C(=O)N(C3CCC(=O)NC3=O)C4=O)nc12 (stereo unspecified),> 20 µM
6,CC(C)c1cnn2c(NCc3ccc(NC(=O)CCCN4CCN(CCCc5cccc6c5CN(C5CCC(=O)NC5=O)C6=O)CC4)cc3)nc(OC3CCN(C)CC3)nc12 (stereo unspecified),0.59 µM
7,CC(C)c1cnn2c(NCc3ccccc3-n3ccnc3)nc(OC3CCN(CCOCCOCCOCCNC(=O)COc4cccc5c4C(=O)N(C4CCC(=O)NC4=O)C5=O)CC3)nc12 (stereo unspecified),> 20 µM
8,CC(C)c1cnn2c(NCc3ccc(NC(=O)CCCCCOc4cccc5c4C(=O)N(C4CCC(=O)NC4=O)C5)cc3)nc(OC3CCN(C)CC3)nc12 (stereo unspecified),0.47 µM
9,CC(C)c1cnn2c(NCc3ccc(NC(=O)COCCOCCOCCOc4cccc5c4C(=O)N(C4CCC(=O)NC4=O)C5=O)cc3)nc(OC3CCN(C)CC3)nc12 (stereo unspecified),4.37 µM
10,CC(C)c1cnn2c(NCc3ccc(NC(=O)COCCOCCOc4cccc5c4C(=O)N(C4CCC(=O)NC4=O)C5=O)cc3)nc(OC3CCN(C)CC3)nc12 (stereo unspecified),4.59 µM
11,CC(C)c1cnn2c(NCc3cccc(CCCCCCNC(=O)COc4cccc5c4C(=O)N(C4CCC(=O)NC4=O)C5=O)c3)cc(NCCCCCCN)nc12 (stereo unspecified),16.3 µM
12,CC(C)c1cnn2c(NCc3ccccc3)cc(NCCCCCCN)nc12,16.3 µM
13,CC(C)c1cnn2c(NCc3ccc(NC(=O)CCCCCN4CCN(CCCc5cccc6c5CN(C5CCC(=O)NC5=O)C6=O)CC4)cc3)nc(OC3CCN(C)CC3)nc12 (stereo unspecified),0.24 µM
14,CC(C)c1cnn2c(NCc3ccc(CCCCCCCOc4cccc5c4C(=O)N(C4CCC(=O)NC4=O)C5=O)cc3N(C)C)nc(OC3CCN(C)CC3)nc12 (stereo unspecified),2.87 µM
15,CC(C)c1cnn2c(NCc3ccc(NC(=O)CCCCCCNC(=O)COc4cccc5c4C(=O)N(C4CCC(=O)NC4=O)C5=O)cc3N(C)C)nc(OC3CCN(C)CC3)nc12 (stereo unspecified),> 20 µM
16,CC(C)c1cnn2c(NCc3cccc(CCCCCCCOc4cccc5c4C(=O)N(C4CCC(=O)NC4=O)C5=O)c3N(C)C)nc(OC3CCN(C)CC3)nc12 (stereo unspecified),3.45 µM
17,CC(C)c1cnn2c(NCc3ccccc3)cc(NCCCCCCNCCOCCOCCOCCNC(=O)COc3cccc4c3C(=O)N(C3CCC(=O)NC3=O)C4=O)nc12 (stereo unspecified),> 20 µM

# System: MDA-MB-231
# Assay: Growth inhibition of human MDA-MB-231 cells assessed as cell viability measured after 4 days by WST8 assay
# Type: functional, cell-based
# Conditions: MDA-MB-231, 96 h
row,SMILES,IC50
1,CC(C)c1cnn2c(NCc3ccc(NC(=O)CCCCCN4CCN(CCCCCc5cccc6c5CN(C5CCC(=O)NC5=O)C6=O)CC4)cc3)nc(OC3CCN(C)CC3)nc12 (stereo unspecified),0.251 µM
2,CC(C)c1cnn2c(NCc3ccc(CCCCCCNC(=O)COc4cccc5c4C(=O)N(C4CCC(=O)NC4=O)C5=O)cc3N(C)C)nc(OC3CCN(C)CC3)nc12 (stereo unspecified),5.28 µM
3,CC(C)c1cnn2c(NCc3ccccc3-n3ccnc3)nc(OC3CCN(CCOCCNC(=O)COc4cccc5c4C(=O)N(C4CCC(=O)NC4=O)C5=O)CC3)nc12 (stereo unspecified),> 20 µM
4,CC(C)c1cnn2c(NCc3ccccc3N(C)C)nc(OC3CCN(CCOCCOCCOCCNC(=O)COc4cccc5c4C(=O)N(C4CCC(=O)NC4=O)C5=O)CC3)nc12 (stereo unspecified),> 20 µM
5,CC(C)c1cnn2c(NCc3ccccc3)cc(NCCCCCCNCCOCCNC(=O)COc3cccc4c3C(=O)N(C3CCC(=O)NC3=O)C4=O)nc12 (stereo unspecified),> 20 µM
6,CC(C)c1cnn2c(NCc3ccc(NC(=O)CCCN4CCN(CCCc5cccc6c5CN(C5CCC(=O)NC5=O)C6=O)CC4)cc3)nc(OC3CCN(C)CC3)nc12 (stereo unspecified),0.9 µM
7,CC(C)c1cnn2c(NCc3ccccc3-n3ccnc3)nc(OC3CCN(CCOCCOCCOCCNC(=O)COc4cccc5c4C(=O)N(C4CCC(=O)NC4=O)C5=O)CC3)nc12 (stereo unspecified),> 20 µM
8,CC(C)c1cnn2c(NCc3ccc(NC(=O)CCCCCOc4cccc5c4C(=O)N(C4CCC(=O)NC4=O)C5)cc3)nc(OC3CCN(C)CC3)nc12 (stereo unspecified),0.57 µM
9,CC(C)c1cnn2c(NCc3ccc(NC(=O)COCCOCCOCCOc4cccc5c4C(=O)N(C4CCC(=O)NC4=O)C5=O)cc3)nc(OC3CCN(C)CC3)nc12 (stereo unspecified),10.3 µM
10,CC(C)c1cnn2c(NCc3ccc(NC(=O)COCCOCCOc4cccc5c4C(=O)N(C4CCC(=O)NC4=O)C5=O)cc3)nc(OC3CCN(C)CC3)nc12 (stereo unspecified),9.2 µM
11,CC(C)c1cnn2c(NCc3cccc(CCCCCCNC(=O)COc4cccc5c4C(=O)N(C4CCC(=O)NC4=O)C5=O)c3)cc(NCCCCCCN)nc12 (stereo unspecified),> 20 µM
12,CC(C)c1cnn2c(NCc3ccccc3)cc(NCCCCCCN)nc12,18.5 µM
13,CC(C)c1cnn2c(NCc3ccc(NC(=O)CCCCCN4CCN(CCCc5cccc6c5CN(C5CCC(=O)NC5=O)C6=O)CC4)cc3)nc(OC3CCN(C)CC3)nc12 (stereo unspecified),0.9 µM
14,CC(C)c1cnn2c(NCc3ccc(CCCCCCCOc4cccc5c4C(=O)N(C4CCC(=O)NC4=O)C5=O)cc3N(C)C)nc(OC3CCN(C)CC3)nc12 (stereo unspecified),4.16 µM
15,CC(C)c1cnn2c(NCc3ccc(NC(=O)CCCCCCNC(=O)COc4cccc5c4C(=O)N(C4CCC(=O)NC4=O)C5=O)cc3N(C)C)nc(OC3CCN(C)CC3)nc12 (stereo unspecified),> 20 µM
16,CC(C)c1cnn2c(NCc3cccc(CCCCCCCOc4cccc5c4C(=O)N(C4CCC(=O)NC4=O)C5=O)c3N(C)C)nc(OC3CCN(C)CC3)nc12 (stereo unspecified),4.16 µM
17,CC(C)c1cnn2c(NCc3ccccc3)cc(NCCCCCCNCCOCCOCCOCCNC(=O)COc3cccc4c3C(=O)N(C3CCC(=O)NC3=O)C4=O)nc12 (stereo unspecified),> 20 µM

# System: BT-549
# Assay: Growth inhibition of human BT-549 cells assessed as cell viability measured after 4 days by WST8 assay
# Type: functional, cell-based
# Conditions: BT-549, 96 h
row,SMILES,IC50
1,CC(C)c1cnn2c(NCc3ccc(NC(=O)CCCCCN4CCN(CCCCCc5cccc6c5CN(C5CCC(=O)NC5=O)C6=O)CC4)cc3)nc(OC3CCN(C)CC3)nc12 (stereo unspecified),0.08 µM
2,CC(C)c1cnn2c(NCc3ccc(CCCCCCNC(=O)COc4cccc5c4C(=O)N(C4CCC(=O)NC4=O)C5=O)cc3N(C)C)nc(OC3CCN(C)CC3)nc12 (stereo unspecified),8.39 µM
3,CC(C)c1cnn2c(NCc3ccccc3-n3ccnc3)nc(OC3CCN(CCOCCNC(=O)COc4cccc5c4C(=O)N(C4CCC(=O)NC4=O)C5=O)CC3)nc12 (stereo unspecified),> 20 µM
4,CC(C)c1cnn2c(NCc3ccccc3N(C)C)nc(OC3CCN(CCOCCOCCOCCNC(=O)COc4cccc5c4C(=O)N(C4CCC(=O)NC4=O)C5=O)CC3)nc12 (stereo unspecified),> 20 µM
5,CC(C)c1cnn2c(NCc3ccccc3)cc(NCCCCCCNCCOCCNC(=O)COc3cccc4c3C(=O)N(C3CCC(=O)NC3=O)C4=O)nc12 (stereo unspecified),> 20 µM
6,CC(C)c1cnn2c(NCc3ccc(NC(=O)CCCN4CCN(CCCc5cccc6c5CN(C5CCC(=O)NC5=O)C6=O)CC4)cc3)nc(OC3CCN(C)CC3)nc12 (stereo unspecified),0.58 µM
7,CC(C)c1cnn2c(NCc3ccccc3-n3ccnc3)nc(OC3CCN(CCOCCOCCOCCNC(=O)COc4cccc5c4C(=O)N(C4CCC(=O)NC4=O)C5=O)CC3)nc12 (stereo unspecified),21.5 µM
8,CC(C)c1cnn2c(NCc3ccc(NC(=O)CCCCCOc4cccc5c4C(=O)N(C4CCC(=O)NC4=O)C5)cc3)nc(OC3CCN(C)CC3)nc12 (stereo unspecified),0.37 µM
9,CC(C)c1cnn2c(NCc3ccc(NC(=O)COCCOCCOCCOc4cccc5c4C(=O)N(C4CCC(=O)NC4=O)C5=O)cc3)nc(OC3CCN(C)CC3)nc12 (stereo unspecified),4.69 µM
10,CC(C)c1cnn2c(NCc3ccc(NC(=O)COCCOCCOc4cccc5c4C(=O)N(C4CCC(=O)NC4=O)C5=O)cc3)nc(OC3CCN(C)CC3)nc12 (stereo unspecified),3.78 µM
11,CC(C)c1cnn2c(NCc3cccc(CCCCCCNC(=O)COc4cccc5c4C(=O)N(C4CCC(=O)NC4=O)C5=O)c3)cc(NCCCCCCN)nc12 (stereo unspecified),12.8 µM
12,CC(C)c1cnn2c(NCc3ccccc3)cc(NCCCCCCN)nc12,12.8 µM
13,CC(C)c1cnn2c(NCc3ccc(NC(=O)CCCCCN4CCN(CCCc5cccc6c5CN(C5CCC(=O)NC5=O)C6=O)CC4)cc3)nc(OC3CCN(C)CC3)nc12 (stereo unspecified),0.19 µM
14,CC(C)c1cnn2c(NCc3ccc(CCCCCCCOc4cccc5c4C(=O)N(C4CCC(=O)NC4=O)C5=O)cc3N(C)C)nc(OC3CCN(C)CC3)nc12 (stereo unspecified),4.11 µM
15,CC(C)c1cnn2c(NCc3ccc(NC(=O)CCCCCCNC(=O)COc4cccc5c4C(=O)N(C4CCC(=O)NC4=O)C5=O)cc3N(C)C)nc(OC3CCN(C)CC3)nc12 (stereo unspecified),14.3 µM
16,CC(C)c1cnn2c(NCc3cccc(CCCCCCCOc4cccc5c4C(=O)N(C4CCC(=O)NC4=O)C5=O)c3N(C)C)nc(OC3CCN(C)CC3)nc12 (stereo unspecified),2.01 µM
17,CC(C)c1cnn2c(NCc3ccccc3)cc(NCCCCCCNCCOCCOCCOCCNC(=O)COc3cccc4c3C(=O)N(C3CCC(=O)NC3=O)C4=O)nc12 (stereo unspecified),> 20 µM
